Laboratory results published in patent US10710951B2, “Pharmaceutical composition containing verbenone derivative for treating or preventing neurodegenerative disease” (KOREA UNIVERSITY RESEARCH AND BUSINESS FOUNDATION, priority 2012, dated 2020).

How the values were obtained:
[1] = tested on: cortical neurons; assay: Intracellular levels (DCF fluorescence) of reactive oxygen species after OGD/reoxygenation; assay type: cell-based, SD rats; conditions: FIG. 3
Protocol: In order to examine the direct radical scavenging activities of the samples, at 1 hour after reoxygenation, the cells were stained with the fluorescent probe H2DCF-DA (2,7-dihydroichlorofluorescein diacetate) that is widely used to measure intracellular oxidative stress. After 2 hours, the cells were washed in EBSS buffer (containing 25 mM glucose, 1.8 mM CaCal2, 1.2 mM MgSO4 and 2.5 mM probenecid (pH7.4)), and the fluorescence of DCF was measured with a fluorescence microplate reader (SpectraMax GeminiEM; Ex=485 nm, Em=530 nm) or a fluorescence microscope (DM IL HC Fluo, Leica, Wetzlar, Germany) equipped with a digital camera (DFC420C, Leica, Wetzlar Germany). The fluorescence intensity was compensated with autofluorescence (i.e., the fluorescence of cells not loaded with H2DCF-DA).

[2] = DPPH assay (ability to scavenge nitrogen radicals); design: DPPH assay % inhibition: concentration or dose not given beside the values
Protocol: The samples were mixed with DPPH (23.6 μg/ml, in ethanol), and incubated in dark at 37° C. for 30 minutes. The DPPH absorbance reduced by each sample was measured at 517 nm. Vitamin C (Sigma-Aldrich, St. Louis, Mo.) was used as a control, and the DPPH inhibition value (%) was calculated using the following equation: Scavenging activity (%)=[Absmax(Vit.C)−Abssample]/[Absmax(Vit.C)−Absmin(Vit.C)]×100. Equation 1
The antioxidant activities of the verbenone derivatives of the present invention were measured by the following two different chemical reactions: (1) a single electron transfer-based assay that is a […] [DPPH] assay that measures a decrease in DPPH acting as a free radical generator and a termination probe; and (2) a hydrogen atom transfer assay that is an oxygen radical absorbance capacity [[…]] assay that measures the competitive reaction kinetics of a peroxyl radical generator (AAPH; 2,2′-azobis-(2-methylpropionamide)-dihydrochloride) and each sample acting as an antioxidant for oxidizable fluorescent probe (fluorescein).

[3] = tested on: cortical neurons; assay: NMDA-induced excitotoxicity, LDH release; assay type: cell-based, SD rats; design: dose or concentration left out as unconfirmed; conditions: cultured cortical neuronal cells; sample 30 min before NMDA; lower than MK-801; FIG. 2
Protocol: Cortical neurons (5×10^5 cells/ml) were isolated from fetal SD rats (16-17 days). Specifically, brain cortex was cut, and cells were isolated from the tissue by repeated trituration using a Pasteur pipette in buffer (Hanks' Balanced Salt Solution, HBSS). The cell suspension (1.8×10^3 cells/mm^2) was dispensed on a plate pretreated with poly-D-lysine ([…])/laminin ([…]). The cells were placed in 10% FBS-containing NBM medium, and incubated in a […]/5% CO2 atmosphere at 37° C. After 15-16 days of the incubation, the experiment was performed.
After incubation on the plate for 15-18 days, the cortical neurons were exposed to NMDA ([…]) in a solution (Mg^2+-free Earle's balanced salt solution (EBSS); containing 1.8 mM CaCl2 and 10 mM glycine) for 10 minutes. After exposure, the cells were washed with MgSO4-containing EBSS solution, and incubated in 25 mmol/L glucose-containing DMEM medium in a 5% CO2 incubator at 37° C. 30 Minutes before treatment with NMDA, the cells were treated with each sample […].
In order to measure cell injury or cell death, the amount of LDH released into the medium was measured using a cell viability measurement kit (Sigma-Aldrich, St. Louis, Mo.). Cell viability was expressed as the percentage of LDH relative to the total cellular LDH level measured in sister cultures lysed by freezing-thawing after the experiment.

## COc1cc(C=CC2=CC(=O)[C@H]3C[C@@H]2C3(C)C)cc(O)c1O [Compound 3f, (1S,5R)-4-(3,4-dihydroxy-5-methoxystyryl)-6,6-dimethylbicyclo[3.1.1]hept-3-en-2-one]
[1]
  OGD-induced intracellular oxidative stress (DCF fluorescence): reduced OGD-induced intracellular oxidative stress
[2]; compared to vitamin C at the same concentration
  DPPH scavenging activity (in words): stronger scavenging activity compared to vitamin C
[2]; relative to vitamin C (Equation 1)
  DPPH assay % inhibition: 83.64 ± 6.19%
[3]
  NMDA-induced neuronal injury: significantly reduced NMDA-induced neuronal injury
